Assay results as given in ChEMBL document CHEMBL6182935, “Discovery of a Novel Silybin Derivative for the Treatment of Metabolic Dysfunction-Associated Steatohepatitis” (J Med Chem, 2025).
≈ marks a conversion by molar mass, not a printed value. Calls of active or inactive are those of the source. The rule behind the calls is not given here.

Columns and labels:
[1] = Solubility in methanol incubated for 10 mins; assay type: physicochemical
[2] = Inhibition of lipid peroxidation in egg yolk (unknown origin) at 100 uM preheated with compound and FeSO4 for 15 mins followed by TCA/TBA addition measured after 15 mins by absorbance based assay relative to control; assay type: functional, tissue-based; set-up: scale not given: the % may be the effect or the level left; conditions: time 30.0 min
L02 [3] = experiment: Anti-MASH activity in palmitate/oleate-stimulated human LO2 cells assessed as reduction in SCD mRNA level at 10 to 40 uM incubated for 24 hrs by q-PCR analysis; assay type: functional, cell-based; conditions: dose 10-40 µM
LX-2 = experiment: Anti-MASH activity in TGF-beta-activated-human LX2 cells assessed as reduction in fibronectin level incubated for 48 hrs by Western blot analysis; assay type: functional, cell-based; conditions: dose 10-40 µM
Mus musculus [4] = experiment: Anti-MASH activity in HFD-fed CCl4-treated male C57BL/6 mouse assessed as restoration of serum ALT level at 150 mg/kg, po qd treated for 4 weeks; assay type: functional, organism-based
Mus musculus [5] = experiment: Anti-MASH activity in HFD-fed CCl4-treated male C57BL/6 mouse assessed as reduction in alpha-SMA in liver at 150 mg/kg, po qd treated for 4 weeks by IHC analysis; assay type: functional, organism-based
Rattus norvegicus [6] = experiment: Hepatoprotective activity in male Sprague-Dawley rat model of CCl4-induced ALI assessed as reduction in dullness of liver margin at 100 mg/kg, IG qd pretreated with compound for 7 days followed by CCl4 administration after 2 hrs post-compound treatment measured after 16 hrs post-CCl4 injection; assay type: functional, organism-based; conditions: time 186.0 hrs
[7] = Antioxidant activity assessed as clearing rate incubated for 30 mins under dark condition by DPPH free radical scavenging assay; assay type: functional
[8] = Tmax in overnight-fasted male Sprague-Dawley rat at 150 mg/kg, po measured up to 12 hrs by HPLC analysis; assay type: ADME, organism-based; conditions: in vivo
L02 [9] = experiment: Anti-MASH activity in palmitate/oleate-stimulated human LO2 cells assessed as reduction in FASN mRNA level at 10 to 40 uM incubated for 24 hrs by q-PCR analysis; assay type: functional, cell-based; conditions: dose 10-40 µM
[10] = Cmax in overnight-fasted male Sprague-Dawley rat at 150 mg/kg, po measured up to 12 hrs by HPLC analysis; assay type: ADME, organism-based; conditions: in vivo
Mus musculus [11] = experiment: Anti-MASH activity in HFD-fed CCl4-treated male C57BL/6 mouse assessed as reduction in serum LDL cholesterol level at 150 mg/kg, po qd treated for 4 weeks; assay type: functional, organism-based
Mus musculus [12] = experiment: Anti-MASH activity in HFD-fed CCl4-treated male C57BL/6 mouse assessed as reversal of mottled texture of liver at 150 mg/kg, po qd treated for 4 weeks; assay type: functional, organism-based
[13] = Toxicity in HFD-fed CCl4-treated male C57BL/6 mouse assessed as body weight loss at 150 mg/kg, po qd treated for 4 weeks; assay type: organism-based; conditions: in vivo, 672 h
L02 [14] = experiment: Anti-inflammatory activity in CCl4-stimulated human LO2 cells assessed as reduction in IL-6 mRNA level at 1 uM; assay type: functional, cell-based
Mus musculus [15] = experiment: Anti-MASH activity in HFD-fed CCl4-treated male C57BL/6 mouse assessed as reversal of light color of liver at 150 mg/kg, po qd treated for 4 weeks; assay type: functional, organism-based
Mus musculus [16] = experiment: Anti-MASH activity in HFD-fed CCl4-treated male C57BL/6 mouse assessed as reduction in collagen I in liver at 150 mg/kg, po qd treated for 4 weeks by IHC analysis; assay type: functional, organism-based
[17] = Acute toxicity in male KM mouse assessed as animal suvival at 2 g/kg, po administered as single dose measured after 2 weeks; assay type: organism-based; conditions: in vivo, 2000 mg/kg, 336 h
Rattus norvegicus [18] = experiment: Hepatoprotective activity in male Sprague-Dawley rat model of CCl4-induced ALI assessed as reduction in vacuoles at 100 mg/kg, IG qd pretreated with compound for 7 days followed by CCl4 administration after 2 hrs post-compound treatment measured after 16 hrs post-CCl4 injection by H and E staining based analysis; assay type: functional, organism-based; conditions: time 186.0 hrs
[19] = Antioxidant activity assessed as inhibition of superoxide anion scavenging activity incubated for 5 mins in presence of pyrogallol; assay type: functional
[20] = Apparent clearance during terminal phase in overnight-fasted male Sprague-Dawley rat at 150 mg/kg, po measured up to 12 hrs by HPLC analysis; assay type: ADME, organism-based; conditions: in vivo, read-out: CLz/F (converted)
Mus musculus [21] = experiment: Anti-MASH activity in HFD-fed CCl4-treated male C57BL/6 mouse assessed as reduction in liver TNF-alpha level at 150 mg/kg, po qd treated for 4 weeks by ELISA; assay type: functional, organism-based
Hepatocyte [22] = experiment: Anti-inflammatory activity in CCl4-stimulated mouse primary hepatocytes assessed as reduction in TNF-alpha mRNA level at 1 uM; assay type: functional, cell-based
Rattus norvegicus [23] = experiment: Hepatoprotective activity in male Sprague-Dawley rat model of CCl4-induced ALI assessed as restoration of SOD level at 100 mg/kg, IG qd pretreated with compound for 7 days followed by CCl4 administration after 2 hrs post-compound treatment measured after 16 hrs post-CCl4 injection; assay type: functional, organism-based; conditions: time 186.0 hrs
[24] = Toxicity in male Sprague-Dawley rat model of CCl4-induced ALI assessed as body weight change at 100 mg/kg, IG qd pretreated with compound for 7 days followed by CCl4 administration after 2 hrs post-compound treatment measured after 16 hrs post-CCl4 injection; assay type: organism-based; conditions: in vivo, po, 186 h
[25] = AUC (0 to infinity) in overnight-fasted male Sprague-Dawley rat at 150 mg/kg, po measured up to 12 hrs by HPLC analysis; assay type: ADME, organism-based; conditions: in vivo
L02 [26] = experiment: Anti-MASH activity in palmitate/oleate-stimulated human LO2 cells assessed as reduction in lipid accumulation at 10 to 40 uM incubated for 24 hrs by Oil Red O staining assay; assay type: functional, cell-based; conditions: dose 10-40 µM
Hepatocyte [27] = experiment: Anti-inflammatory activity in CCl4-stimulated mouse primary hepatocytes assessed as reduction in IL-6 mRNA level at 1 uM; assay type: functional, cell-based
Mus musculus [28] = experiment: Anti-MASH activity in HFD-fed CCl4-treated male C57BL/6 mouse assessed as restoration of liver SOD level at 150 mg/kg, po qd treated for 4 weeks; assay type: functional, organism-based
Mus musculus [29] = experiment: Anti-MASH activity in HFD-fed CCl4-treated male C57BL/6 mouse assessed as reduction in serum HDL cholesterol level at 150 mg/kg, po qd treated for 4 weeks; assay type: functional, organism-based
[30] = Solubility in ethyl acetate incubated for 10 mins; assay type: physicochemical
L02 [31] = experiment: Anti-inflammatory activity in CCl4-stimulated human LO2 cells assessed as reduction in TNF-alpha mRNA level at 1 uM; assay type: functional, cell-based
Mus musculus [32] = experiment: Anti-MASH activity in HFD-fed CCl4-treated male C57BL/6 mouse assessed as restoration of liver GSH level at 150 mg/kg, po qd treated for 4 weeks; assay type: functional, organism-based
Mus musculus [33] = experiment: Anti-MASH activity in HFD-fed CCl4-treated male C57BL/6 mouse assessed as reduction in steatosis in liver at 150 mg/kg, po qd treated for 4 weeks by H and E/Oil red O staining based analysis; assay type: functional, organism-based
Rattus norvegicus [34] = experiment: Hepatoprotective activity in male Sprague-Dawley rat model of CCl4-induced ALI assessed as reduction in roughened surface in liver at 100 mg/kg, IG qd pretreated with compound for 7 days followed by CCl4 administration after 2 hrs post-compound treatment measured after 16 hrs post-CCl4 injection; assay type: functional, organism-based; conditions: time 186.0 hrs

## COc1cc([C@@H]2Oc3cc([C@H]4Oc5cc(O)cc(O)c5C(=O)[C@@H]4O)ccc3OC2CS)ccc1O (stereo not given in full)
[1]
  solubility: 913 mg/mL (≈ 1830 mM)
[2]
  Activity: 67%
L02 [3]
  Activity: Active
LX-2
  Activity: Dose-dependent-effect
Mus musculus [4]
  Activity: Active; Activity Was Better Than Silybin
Mus musculus [5]
  Activity: Active
Rattus norvegicus [6]
  Activity: Active
[7]
  Activity: 92.9%
[8]
  Tmax: 1.99 h
L02 [9]
  Activity: Active
[10]
  Cmax: 4080 ng/mL
Mus musculus [11]
  Activity: Active
Mus musculus [12]
  Activity: Active; Activity Better Than Silybin
[13]
  Activity: Non-toxic
L02 [14]
  Activity: Active
Mus musculus [15]
  Activity: Active; Activity Better Than Silybin
Mus musculus [16]
  Activity: Active
[17]
  Activity: Non-toxic
Rattus norvegicus [18]
  Activity: Active
[19]
  IC50: 28.1 µM
[20]
  CL/F: 51.3 mL/min
Mus musculus [21]
  Activity: Active
Hepatocyte [22]
  Activity: Active
Rattus norvegicus [23]
  Activity: Active; Exhibited Better Efficacy Than Silybin
[24]
  Activity: Non-toxic
[25]
  AUC(0-inf): 11600 ng·h/mL
L02 [26]
  Activity: Active
Hepatocyte [27]
  Activity: Active
Mus musculus [28]
  Activity: Active
Mus musculus [29]
  Activity: Active
[30]
  solubility: > 1000 mg/mL
L02 [31]
  Activity: Active
Mus musculus [32]
  Activity: Active; Compound Was More Significant Than Silybin
Mus musculus [33]
  Activity: Active; Activity Was Better Than Silybin
Rattus norvegicus [34]
  Activity: Active
